{"source": "patent US8361740B2", "about": "“Peptide standards” (King's College London, priority 2007, dated 2013)", "tested_on": "trypsin", "experiment": "Tryptic digestion of peptide standards, released T6 peptide (LVNEVTEFAK) measured by LC-MSMS (MRM)", "type": "biochemical", "conditions": "for IS Peak Area (counts): LVNEVTEFAK* signal, internal std + digested peptide 8; for Analyte Peak Area (counts): trypsin 37° C. 30 min", "excerpt": "The first experiment was test the hypothesis that the LVNEVTEFAKT (SEQ ID NO:7) peptide is cleaved to LVNEVTEFAK (SEQ ID NO:10) by trypsin as efficiently as the longer peptides. Using LVNEVTEFAK* (SEQ ID NO:10) as the internal standard peptides (1-5, and 8) were digested using standard protocol. […] This implies that any internal standard peptide where cysteine is the N-terminal amino acid will require the next amino acid in addition to be effective.\nExperiment to Determine Number of Amino Acids Required Following Trypsin Digest Site for Digestion.\nAssay 50 μl peptide 1-6 & 8 (blank was deionised water)+50 μl internal std Add 10 μl acetonitrile & 10 μl 1% formic acid, vortex mix, and stand for 5 min Add 6 μl […] ammonium bicarbonate & 5 μl trypsin (5 mg/l), vortex mix, and pulse centrifuge (6 sec) Incubate at 37° C. for 30 min & add 500 μl HPLC solvent (acetonitrile:water 1:1 with 0.025% formic acid) Vortex mix and transfer to 96-deep well polypropylene plate Sample volume, 5 μl; flow rate, 500 μl/min Chromatography—teicoplanin guard column MSMS parameters—generic peptide ionisation and doubly charged ion fragmentation T6 doubly charged ion m/z 575.4 and internal std m/z 579.4 Product ions (m/z): 937.4, 823.4, 694.4—internal std (m/z): 945.4, 831.4, 702.4 (150 ms/MRM) Results", "note": "Non-standard residues stand in square brackets, D forms with d. No end group written: not given here. K∗ = stable isotope labelled lysine", "data": [{"substance": "LVNEVTEFAK*T (LVNEVTEFA[K∗]T) [peptide 8]", "values": [{"measurement": "signal for LVNEVTEFAK after tryptic digestion", "setting": "3 different MRMs, LVNEVTEFAK* as internal standard", "value": "no signal"}, {"measurement": "LVNEVTEFAK* signal after tryptic digestion", "setting": "LVNEVTEFAK* as internal standard", "value": "increased by the expected amount"}, {"measurement": "Internal standard area Ratio (IS + peptide 8 / Mean (Blank, 1-6))", "setting": "T6 694", "value": 1.87}, {"measurement": "IS Peak Area (counts)", "setting": "T6 694 transition", "value": 238000, "unit": "counts"}, {"measurement": "Internal standard area Ratio (IS + peptide 8 / Mean (Blank, 1-6))", "setting": "T6 823", "value": 1.80}, {"measurement": "IS Peak Area (counts)", "setting": "T6 823 transition", "value": 83000, "unit": "counts"}, {"measurement": "Internal standard area Ratio (IS + peptide 8 / Mean (Blank, 1-6))", "setting": "T6 937", "value": 1.91}, {"measurement": "IS Peak Area (counts)", "setting": "T6 937 transition", "value": 253000, "unit": "counts"}, {"measurement": "Analyte Peak Area (counts)", "setting": "analyte T6 694 (m/z 575.4/694.4)", "value": 149, "unit": "counts"}, {"measurement": "Area Ratio", "setting": "analyte T6 694 / internal std LVNEVTEFAK*", "value": 0.00062}, {"measurement": "Analyte Peak Area (counts)", "setting": "analyte T6 823 (m/z 575.4/823.4)", "value": 62, "unit": "counts"}, {"measurement": "Area Ratio", "setting": "analyte T6 823 / internal std LVNEVTEFAK*", "value": 0.00074}, {"measurement": "Analyte Peak Area (counts)", "setting": "analyte T6 937 (m/z 575.4/937.4)", "value": 147, "unit": "counts"}, {"measurement": "Area Ratio", "setting": "analyte T6 937 / internal std LVNEVTEFAK*", "value": 0.00058}, {"measurement": "recovery after tryptic digestion", "setting": "within the limits of the experiment", "value": "full recovery"}]}]}
